A word on the pIC50: it is −log10 of the IC50, conventionally taken in molar units. As usually defined, the DC50 is the concentration giving 50% degradation.

Structures are written as SMILES. pIC50: −log10 of the molar value. Read-outs that look alike come from different tables or passages of the source.

The test system of one experiment is AsPC-1 cells. The experiment can be described thus: Non-anchorage-dependent cell growth inhibition (spheroid 3D culture), AsPC-1. It counts as cell-based. The settings on record: Homo sapiens, ASPC1, 144 h, read-out: AsPC-1 IC50. As to the method:
(§1) Test Example 3: Evaluation of Non-Anchorage-Dependent Cell Growth Inhibitory Activity on Human KRAS G12V Mutant-Positive Pancreatic Cancer Line PA-TU-8902, Human KRAS G12D Mutant-Positive Pancreatic Cancer Line AsPC-1 or Human KRAS G12C Mutant-Positive Pancreatic Cancer Line MIA PaCa-2
(§2) The non-anchorage-dependent cell growth inhibitory activities of subject compounds were evaluated by spheroid 3D cell culture.
(§3) PA-TU-8902 cells, AsPC-1 cells or MIA PaCa-2 cells (RIKEN BRC, RCB2094) were seeded at 36 µL/well on a low-cell-adhesive round bottom 384-well plate (Prime Surface: from Sumitomo Bakelite) to give 5×10^2 cells per well. The PA-TU-8902 cells were under the same conditions as in Test Example 1-1, and the AsPC-1 cells were under the same conditions as in Test Example 1-2. For the MIA PaCa-2 cells, RPMI-1640 medium containing 10% fetal bovine serum was used in the presence of 5% CO2 at 37° C.
(§4) The next day, the subject compounds (6-9 points having final concentrations in the range of 3 μM to 0.3 nM) and DMSO, which was the solvent for the subject compounds, as a negative control were diluted 100-fold with a fresh medium and were each added at 4 μL per well. After culturing in the presence of 5% CO2 at 37° C. for six days, CellTiter-Glo 2.0 (from Promega) was added at 20 μL per well. After stirring with a plate mixer (from FINEPCR) at normal temperature for an hour, the luminescent signals were measured with ARVO X3 (from PerkinElmer).
(§5) With the signaling value in treatment with DMSO taken as 0% inhibition and with the signaling value in the medium alone without cells taken as 100% inhibition, the 50% inhibition values (IC50) were calculated by Sigmoid-Emax model nonlinear regression analysis.

The target in the next experiment is T1, RAS G12V (Homo sapiens, UniProt P01116, G12V).
T1 construct: host or cells: PA-TU-8902 human pancreatic cancer cells
T1 sequence (P01116 1-188 isoform P01116-2 G12V): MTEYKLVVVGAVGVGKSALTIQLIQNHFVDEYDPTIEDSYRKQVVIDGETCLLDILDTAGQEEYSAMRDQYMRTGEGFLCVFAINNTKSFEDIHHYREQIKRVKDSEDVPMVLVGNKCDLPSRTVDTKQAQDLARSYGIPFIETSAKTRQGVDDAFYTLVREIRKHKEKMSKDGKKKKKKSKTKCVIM
The experiment can be described thus: RAS G12V degradation activity, Cell ELISA, PA-TU-8902. The note with it: PA-TU-8902 cells, 24 hours; for DC50: 100% = Example compound 17 at 1 μM, read-out: DC50 (RAS G12V 50% degradation value). It counts as cell-based. The method, then: Test Example 1-1: Evaluation of RAS G12V Degradation Activity on Human KRAS G12V Mutant-Positive Pancreatic Cancer Line PA-TU-8902
The RAS G12V degradation activities of subject compounds were evaluated by measuring the expression levels of RAS G12V by a Cell ELISA method.
PA-TU-8902 cells (DSMZ, ACC 179) were seeded at 36 μL per well on a 384-well plate (from Greiner bio-one) to give 1.5×10^4 cells per well. As for the cell culture conditions, DMEM medium (from Sigma-Aldrich) containing 10% fetal bovine serum (from Cytiva) was used in the presence of 5% CO2 at 37° C.
The next day, the subject compounds (10 points having final concentrations in the range of 3 μM to 0.1 nM), Example compound 17 of a final concentration of 1 μM as a positive control and dimethyl sulfoxide (DMSO), which was the solvent for the subject compounds, as a negative control were diluted 100-fold with a fresh medium and were each added at 4 μL per well, followed by culturing for 24 hours.
The next day, the culture supernatant was removed, and a 4% paraformaldehyde phosphate buffer solution (from FUJIFILM Wako) was added at 20 μL per well. The plate was allowed to stand for 30 minutes at room temperature to thus immobilize the cells. Then, the supernatant was removed, and 0.1% Triton X-100 (from Amersham Biosciences)-containing Phosphate buffered saline (PBS) was added at 20 μL per well. After allowing the plate to stand at room temperature for 10 minutes, the supernatant was removed, and the wells were washed twice in total by adding PBS at 25 μL per well and removing the supernatant. The washing operations below were performed in the same manner. Next, the supernatant was removed, and 0.5% sodium dodecyl sulfate (SDS; from ThermoFisher Scientific)-containing PBS was added at 20 μL per well. After allowing the plate to stand at room temperature for 10 minutes, the plate was centrifuged to remove the supernatant. After washing with PBS, the supernatant was removed by centrifugation, and a blocking solution (PVDF Blocking Reagent for Can Get Signal; from TOYOBO) was added at 20 μL per well. After allowing the plate to stand for 30 minutes at room temperature, the supernatant was removed by centrifugation, and a solution obtained by diluting an anti-Ras (G12V Mutant Specific) antibody (Ras (G12V Mutant Specific) (D2H12) Rabbit mAb; from Cell Signaling Technology; 500-fold dilution) and an anti-3-actin antibody (Anti-beta Actin antibody; from Abcam; 5,000-fold dilution) with Can Get Signal Solution 2 (from TOYOBO) was added at 15 μL per well as primary antibodies. The plate was allowed to stand overnight at 4° C.
The next day, the supernatant was removed by centrifugation, and the plate was washed with PBS. The supernatant was removed by centrifugation, and a solution obtained by diluting an anti-rabbit IgG antibody (IRDye 800CW Goat anti-Rabbit IgG; from LI-COR Biosciences) and an anti-mouse IgG antibody (IRDye 680RD Donkey anti-Mouse IgG; from LI-COR Biosciences) 1,000-fold with Can Get Signal Solution 2 was added at 15 μL per well as secondary antibodies. After allowing the plate to stand at room temperature for an hour, the supernatant was removed by centrifugation, and the plate was washed with PBS. After removing the supernatant, the plate was dried as it was with air at room temperature for two hours or more, and the 700-nm and 800-nm fluorescent signals were measured with Aerius (from LI-COR Biosciences).
With the RAS G12V signaling value at the time of addition of DMSO corrected with the signaling value of 3-actin taken as 0% and with the RAS G12V signaling value at the time of addition of Example compound 17 of a final concentration of 1 μM taken as 100%, the RAS G12V degradation rates were calculated. The 50% degradation values (DC50) were calculated by Sigmoid-Emax model nonlinear regression analysis.
(In an ELISA, binding on a coated surface is turned into a signal by an enzyme label.)

A further experiment relates to PA-TU-8902 cells. The experiment can be described thus: Non-anchorage-dependent cell growth inhibition (spheroid 3D culture), PA-TU-8902. The note with it: Homo sapiens, PaTu 8902, 144 h, read-out: PA-TU-8902 IC50. The format is cell-based, human. The method, then:
as §1, §2, §3, §4, §5

Where [1] appears, read: KRAS G12D mutant-positive, 3D spheroid, six days, CellTiter-Glo 2.0.
[2] abbreviates: KRAS G12V mutant-positive, 3D spheroid, six days, CellTiter-Glo 2.0.

Take `CO[C@@H](C)COc1nc(OC2CN(C(=O)NCCN(C)C)C2)c2cc(C3CC3)c(-c3c(C)c(F)cc4[nH]ncc34)c(OCc3ccc(C(=O)N[C@H](C(=O)N4C[C@H](O)C[C@H]4C(=O)N[C@@H](CO)c4ccc(-c5scnc5C)cc4)C(C)C)cc3)c2n1` [Example 40, N-{4-[({(7M)-6-cyclopropyl-4-[(1-{[2-(dimethylamino)ethyl]carbamoyl}azetidin-3-yl)oxy]-7-(6-fluoro-5-methyl-1H-indazol-4-yl)-2-[(2S)-2-methoxypropoxy]quinazolin-8-yl}oxy)methyl]benzoyl}-L-valyl-(4R)-4-hydroxy-N-{(1R)-2-hydroxy-1-[4-(4-methyl-1,3-thiazol-5-yl)phenyl]ethyl}-L-prolinamide]: the negative logarithm of the IC50 (pIC50) with AsPC-1 cells is 7.21; with PA-TU-8902 cells, 7.00. On RAS G12V, the DC50 is 76 nM.
Regarding `CO[C@@H](C)COc1cc(OC2CN(C(=O)N3CC(CN(C)C)C3)C2)c2cc(C3CC3)c(-c3c(C)c(F)cc4[nH]ncc34)c(OCc3ccc(-c4cn([C@H](C(=O)N5C[C@H](O)C[C@H]5C(=O)N[C@@H](CO)c5ccc(-c6ocnc6C)cc5)C(C)C)nn4)cc3)c2n1` (atropisomer, axis not shown; (M)) [Example 6, (4R)-1-[(2S)-2-(4-{4-[({(7M)-6-cyclopropyl-4-[(1-{3-[(dimethylamino)methyl]azetidine-1-carbonyl}azetidin-3-yl)oxy]-7-(6-fluoro-5-methyl-1H-indazol-4-yl)-2-[(2S)-2-methoxypropoxy]quinolin-8-yl}oxy)methyl]phenyl}-1H-1,2,3-triazol-1-yl)-3-methylbutanoyl]-4-hydroxy-N-{(1R)-2-hydroxy-1-[4-(4-methyl-1,3-oxazol-5-yl)phenyl]ethyl}-L-prolinamide], the negative logarithm of the IC50 (pIC50) in the experiment with AsPC-1 cells (setting [1]) was 7.85; with PA-TU-8902 cells (setting [2]), 7.49. For the same compound, the DC50 at RAS G12V worked out at 22 nM.
In the same order, the values of `COC(C)(C)COc1cc(OC2CN(C(=O)N3CC(CN(C)C)C3)C2)c2cc(C3CC3)c(-c3c(C)c(F)cc4[nH]ncc34)c(OCc3ccc(-c4cn([C@H](C(=O)N5C[C@H](O)C[C@H]5C(=O)N[C@@H](CO)c5ccc(-n6cncn6)cc5)C(C)C)nn4)cc3)c2n1` (atropisomer, axis not shown) [Example 9] are 7.72, 7.28 and 21 nM.
`CO[C@@H](C)COc1nc(N(C)[C@H]2CCN(C(=O)NCCN(C)C)C2)c2cc(C3CC3)c(-c3c(C)c(F)cc4[nH]ncc34)c(OCc3ccc(-c4cn([C@H](C(=O)N5C[C@H](O)C[C@H]5C(=O)N[C@@H](CO)c5ccc(-c6scnc6C)cc5)C(C)C)nn4)cc3)c2n1` (atropisomer, axis not shown) [Example 19]: the pIC50 with AsPC-1 cells (setting [1]) was 7.80; in the experiment with PA-TU-8902 cells (setting [2]), 7.24. In addition, the DC50 on RAS G12V stood at 26 nM.
For `CO[C@@H](C)COc1nc(N[C@H]2C[C@H](OCCN(C)C)C2)c2cc(C3CC3)c(-c3c(C)c(F)cc4[nH]ncc34)c(OCc3ccc(-c4cn([C@H](C(=O)N5C[C@H](O)C[C@H]5C(=O)N[C@@H](CO)c5ccc(-c6scnc6C)cc5)C(C)C)nn4)cc3)c2n1` (atropisomer, axis not shown) [Example 23], the pIC50 is 8.05 with AsPC-1 cells (setting [1]) and 6.74 with PA-TU-8902 cells (setting [2]). Moreover, the DC50 at RAS G12V worked out at 112 nM. Further, at RAS G12V (PaTu 8902, RAS G12V, read-out: Dmax (degradation rate at the concentration with highest degradation activity)), the Dmax was found to be 62%.
For `CO[C@@H](C)COc1cc(OC2CN(C(=O)N3CC(CN(C)C)C3)C2)c2cc(C3CC3)c(-c3c(C)c(F)cc4[nH]ncc34)c(OCc3ccc(-c4cn([C@H](C(=O)N5C[C@H](O)C[C@H]5C(=O)N[C@@H](CO)c5ccc(-n6cncn6)cc5)C(C)C)nn4)cc3)c2n1` (atropisomer, axis not shown; (M)) [Example 5, (4R)-1-[(2S)-2-(4-{4-[({(7M)-6-cyclopropyl-4-[(1-{3-[(dimethylamino)methyl]azetidine-1-carbonyl}azetidin-3-yl)oxy]-7-(6-fluoro-5-methyl-1H-indazol-4-yl)-2-[(2S)-2-methoxypropoxy]quinolin-8-yl}oxy)methyl]phenyl}-1H-1,2,3-triazol-1-yl)-3-methylbutanoyl]-4-hydroxy-N-{(1R)-2-hydroxy-1-[4-(1H-1,2,4-triazol-1-yl)phenyl]ethyl}-L-prolinamide], the values for the negative logarithm of the IC50 (pIC50) with AsPC-1 cells (setting [1]) and with PA-TU-8902 cells (setting [2]) were 8.10 and 7.54, respectively. For the same compound, the DC50 on RAS G12V was 26 nM.
For `CO[C@@H](C)COc1nc(NC2CN(C(=S)N3CC(CN(C)C)C3)C2)c2cc(C3CC3)c(-c3c(C)c(F)cc4[nH]ncc34)c(OCc3ccc(-c4cn([C@H](C(=O)N5C[C@H](O)C[C@H]5C(=O)N[C@@H](CO)c5ccc(-n6cncn6)cc5)C(C)C)nn4)cc3)c2n1` (atropisomer, axis not shown) [Example 26], the pIC50 was 7.82 with AsPC-1 cells (setting [1]) and 7.39 in the experiment with PA-TU-8902 cells (setting [2]). On RAS G12V, the 50% degradation concentration (DC50) came out at 19 nM.
In the case of `CO[C@@H](C)COc1cc(OC2CN(C(=O)O[C@H]3C[C@@H](N(C)C)C3)C2)c2cc(C3CC3)c(-c3c(C)c(F)cc4[nH]ncc34)c(OCc3ccc(-c4cn([C@H](C(=O)N5C[C@H](O)C[C@H]5C(=O)N[C@@H](CO)c5ccc(-n6cncn6)cc5)C(C)C)nn4)cc3)c2n1` (atropisomer, axis not shown; (M)) [Example 13, (1s,3R)-3-(dimethylamino)cyclobutyl 3-({(7M)-6-cyclopropyl-7-(6-fluoro-5-methyl-1H-indazol-4-yl)-8-{[4-(1-{(2S)-1-[(2S,4R)-4-hydroxy-2-({(1R)-2-hydroxy-1-[4-(1H-1,2,4-triazol-1-yl)phenyl]ethyl}carbamoyl)pyrrolidin-1-yl]-3-methyl-1-oxobutan-2-yl}-1H-1,2,3-triazol-4-yl)phenyl]methoxy}-2-[(2S)-2-methoxypropoxy]quinolin-4-yl}oxy)azetidine-1-carboxylate], the pIC50 was 7.74 in the experiment with AsPC-1 cells (setting [1]) and 7.44 in the experiment on PA-TU-8902 cells (setting [2]). On RAS G12V, the 50% degradation concentration (DC50) is 11 nM.

Values taken from patent publication US20260049072A1, “HETEROCYCLIC COMPOUND FOR INDUCING DEGRADATION OF MUTANT KRAS PROTEIN” (Astellas Pharma Inc., priority 2022, published 2026).
